Results on five molecules are retold here after patent US20120101253A1, “STRUCTURED POLYCYCLIC PEPTIDE” (priority 2009, published 2012).

Data set [1] addresses T1, human plasma kallikrein (Homo sapiens, UniProt P03952).
T1 construct: purchased Innovative Research, Southfiled, USA
The experiment in a line: Inhibition of human plasma kallikrein, fluorogenic substrate Z-Phe-Arg-AMC. As to conditions: for inhibition of human plasma kallikrein, fold weaker than parental inhibitor PK15: tricyclic peptides. Format: biochemical. The protocol: Fluorescence intensities were recorded for 1 hour with excitation and emission wavelengths of 355 nm and 460 nm on a fluorescence plate reader (Molecular Devices, Sunnyvale, USA).

Data set [2] addresses T1, human plasma kallikrein. As to conditions: Heinis et al., 2009; cited from earlier work.
The target of the next data set is MDM2 (res 2-125) (Homo sapiens, UniProt Q00987). The experiment in a line: Fluorescence anisotropy titration, binding to MDM2. The protocol:
Titration experiments were run on a Horiba Jobin Yvon fluorimeter equipped with the Hamilton Microlab titrator controlled by laboratory software. […] The slit widths for excitation and emission were 5 nm and 15 nm and the integration time 10 s was used for each measurement. The intrinsic fluorescence of tryptophan in peptides 10, 48 was used to measure their binding affinity for MDM2 (res 2-125). The experiments were performed at 23C° in PBS, 5 mM DTT. Usually 250 μl of MDM2 (150 μM) was titrated into 1.2 ml of peptide (1 uM). Titration data were analyzed with a standard 1:1 binding model by using the quadratic solution to the equilibrium Kd=[A][B]/[AB]. […] The fitting equation contained an extra term to account for linear drift.
A general note: In fluorescence polarisation assays a small probe gives low polarisation when free and higher when bound to something large.

A further data set deals with T2, MDM2 peptide (res 2-125) (Homo sapiens, UniProt Q00987).
T2 construct: biotinylated MDM2 peptide (res 2-125) was immobilized on a streptavidin-coated plate
T2 sequence (Q00987 2-125): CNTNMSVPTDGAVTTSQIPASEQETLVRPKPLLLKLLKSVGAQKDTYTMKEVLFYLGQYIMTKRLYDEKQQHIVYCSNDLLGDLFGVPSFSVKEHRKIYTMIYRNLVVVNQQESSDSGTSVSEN
The experiment in a line: Competition ELISA of PEP48 phage binding to MDM2. As to conditions: TBMB conjugate. An excerpt:
Phage was detected using an anti-M13-HRP monoclonal antibody (1:5000, Amersham).
Background: In an ELISA, binding on a coated surface is turned into a signal by an enzyme label.

In data set [3] the target is T3, leucyl aminopeptidase from Aeromonas proteolytica (Vibrio proteolyticus, UniProt Q01693).
T3 construct: purchased Sigma A8200
T3 sequence (Q01693 107-405 limits assumed): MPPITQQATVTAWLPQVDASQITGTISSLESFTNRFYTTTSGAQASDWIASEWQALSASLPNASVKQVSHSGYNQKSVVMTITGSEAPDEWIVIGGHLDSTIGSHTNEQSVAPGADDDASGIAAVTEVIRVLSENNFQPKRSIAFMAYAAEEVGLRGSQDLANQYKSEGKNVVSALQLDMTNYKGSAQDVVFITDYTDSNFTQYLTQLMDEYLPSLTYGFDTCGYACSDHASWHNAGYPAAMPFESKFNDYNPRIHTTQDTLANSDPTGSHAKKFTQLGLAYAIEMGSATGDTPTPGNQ
The experiment in a line: Aminopeptidase treatment of peptides (MALDI-TOF). Format: in vitro ADME. The protocol: Peptide 7 before (300 μM) and after (75 μM) MTGase treatment in reaction buffer was incubated with different amounts of leucyl aminopeptidase from Aeromonas proteolytica (EC 3.4.11.10; Sigma, A8200) (3 to 352 ng, corresponding to concentrations of about 50 nM to 6 μM) in a final volume of 2 μl for 30 min at RT. The mass of the peptides was determined by MALDI-TOF mass spectrometry.

Setting [4] is: IC50 After MTGase cyclisation (tricyclic), tricyclic peptides after MTGase treatment.
Setting [5] is: IC50 Before MTGase cyclisation (bicyclic), bicyclic TBMB conjugates.

Like-named read-outs stand apart in the source and are kept apart here. Residues, ends and D or L forms follow the SMILES beside them.

T1 sequence (P03952 391-638 limits assumed): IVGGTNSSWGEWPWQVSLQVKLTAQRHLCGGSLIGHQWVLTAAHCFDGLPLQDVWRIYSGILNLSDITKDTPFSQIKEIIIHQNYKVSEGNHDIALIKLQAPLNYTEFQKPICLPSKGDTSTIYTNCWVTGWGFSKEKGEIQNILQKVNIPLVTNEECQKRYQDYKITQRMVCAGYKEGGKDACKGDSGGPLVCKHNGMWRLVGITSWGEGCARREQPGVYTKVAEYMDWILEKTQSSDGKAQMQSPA
T1 sequence (P03952 20-390 partner limits assumed): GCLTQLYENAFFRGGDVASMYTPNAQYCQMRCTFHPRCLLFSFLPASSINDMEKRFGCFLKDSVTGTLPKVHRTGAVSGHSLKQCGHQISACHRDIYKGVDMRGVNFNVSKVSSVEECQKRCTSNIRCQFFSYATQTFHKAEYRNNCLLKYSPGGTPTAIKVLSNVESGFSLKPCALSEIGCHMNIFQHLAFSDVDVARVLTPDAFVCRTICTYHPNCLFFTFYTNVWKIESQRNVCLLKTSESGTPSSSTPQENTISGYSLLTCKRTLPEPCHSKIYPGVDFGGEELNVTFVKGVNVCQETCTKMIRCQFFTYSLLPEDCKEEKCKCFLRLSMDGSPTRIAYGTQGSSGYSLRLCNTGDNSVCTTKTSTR
Chain of MDM2 (res 2-125) (Q00987 2-125): as the sequence (Q00987 2-125) above

For `CC(C)C[C@@H]1NC(=O)[C@H](C)NC(=O)[C@H](CCC(=O)O)NC(=O)[C@H](CC(=O)O)NC(=O)[C@H](C)NC(=O)[C@@H]2CCCN2C(=O)[C@@H]2CSCc3cc(cc(c3)CSC[C@@H](C(=O)N[C@@H](C)C(=O)N[C@@H](CCCCN)C(=O)N[C@@H](CO)C(N)=O)NC1=O)CSC[C@H](NC(=O)[C@H](C)NC(=O)[C@H](CCC(N)=O)NC(=O)[C@H](CC(C)C)NC(=O)[C@H](C)NC(=O)[C@@H](N)Cc1c[nH]c3ccccc13)C(=O)N[C@@H](CO)C(=O)N[C@@H](CC(=O)O)C(=O)N[C@@H](CCCNC(=N)N)C(=O)N[C@@H](Cc1ccccc1)C(=O)N[C@@H](CCCNC(=N)N)C(=O)N[C@@H](CC(N)=O)C(=O)N2` [peptide 8] (HELM PEPTIDE1{W.A.L.Q.A.C.S.D.R.F.R.N.C.P.A.D.E.A.L.C.A.K.S.[am]}|CHEM1{[c1c(C[*:1])cc(C[*:3])cc1C[*:2]]}$PEPTIDE1,CHEM1,6:R3-1:R1|PEPTIDE1,CHEM1,13:R3-1:R2|PEPTIDE1,CHEM1,20:R3-1:R3$$$V2.0), the IC50 (as a rule, the midpoint of a concentration-inhibition curve) against human plasma kallikrein [1] (setting [4]) came out at 196 nM; on human plasma kallikrein [1] (setting [5]), 185 nM. Moreover, the “inhibition of human plasma kallikrein, fold weaker than parental inhibitor PK15” value at human plasma kallikrein [1] is “about 70 fold”.
In the case of `[H][C@@]12CCCN1C(=O)[C@]1([H])CSCc3cc(cc(c3)CSC[C@@H](C(=O)NCC(N)=O)NC(=O)[C@H](CC(C)C)NC(=O)[C@H](C)NC(=O)[C@H](CCC(=O)O)NC(=O)[C@H](CC(=O)O)NC(=O)[C@H](C)NC2=O)CSC[C@H](NC(=O)[C@H](C)N)C(=O)N[C@@H](CO)C(=O)N[C@@H](CC(=O)O)C(=O)N[C@@H](CCCNC(=N)N)C(=O)N[C@@H](Cc2ccccc2)C(=O)N[C@@H](CCCNC(=N)N)C(=O)N[C@@H](CC(N)=O)C(=O)N1` [PK15, reference compound] (HELM PEPTIDE1{A.C.S.D.R.F.R.N.C.P.A.D.E.A.L.C.G.[am]}|CHEM1{[c1c(C[*:1])cc(C[*:3])cc1C[*:2]]}$PEPTIDE1,CHEM1,2:R3-1:R1|PEPTIDE1,CHEM1,9:R3-1:R2|PEPTIDE1,CHEM1,16:R3-1:R3$$$V2.0), on human plasma kallikrein [1] (setting [5]), the IC50 was found to be 3 nM. Also, the “factor of activity reduction on C-terminal conjugation to a protein” value on human plasma kallikrein [2] is on record as “around 10”.
For “H-SCVRFGWTCDNSWHGCKG-OH (cysteine pairing not given here) [PEP48, bicyclic peptide selected against MDM2]”, the “affinity of synthetic peptide for MDM2” value at MDM2 (res 2-125) is listed as “micromolar or better”. The Kd – broadly, a measure of binding affinity in units of concentration – is 500 to 800 nM on MDM2 (res 2-125) (entire bicyclic peptide, read-out: binding affinity (Kd) for MDM2); 760 nM on MDM2 (res 2-125) (measured λex=280 nm, read-out: Kd, peptide + MDM2); 567 nM at MDM2 (res 2-125) (measured λex=295 nm, read-out: Kd, peptide + MDM2). For the same molecule, the “binding site on MDM2 by competition ELISA” value on MDM2 peptide (res 2-125) is on record as “bind to the same site as a linear peptide previously shown to block the p53-MDM2 interaction”.
Regarding `CC(C)C[C@H](NC(=O)[C@H](C)N)C(=O)N[C@@H](CCC(N)=O)C(=O)N[C@@H](C)C(=O)N[C@H]1CSCc2cc3cc(c2)CSC[C@H](NC(=O)[C@H](CC(N)=O)NC(=O)[C@H](CCCNC(=N)N)NC(=O)[C@H](Cc2ccccc2)NC(=O)[C@H](CCCNC(=N)N)NC(=O)[C@H](CC(=O)O)NC(=O)[C@H](CO)NC1=O)C(=O)N1CCC[C@H]1C(=O)N[C@@H](C)C(=O)N[C@@H](CC(=O)O)C(=O)N[C@@H](CCC(=O)O)C(=O)N[C@@H](C)C(=O)N[C@@H](CC(C)C)C(=O)N[C@H](C(=O)N[C@@H](C)C(=O)N[C@@H](CCCCN)C(=O)N[C@@H](CO)C(N)=O)CSC3` [peptide 7] (HELM PEPTIDE1{A.L.Q.A.C.S.D.R.F.R.N.C.P.A.D.E.A.L.C.A.K.S.[am]}|CHEM1{[c1c(C[*:1])cc(C[*:3])cc1C[*:2]]}$PEPTIDE1,CHEM1,5:R3-1:R1|PEPTIDE1,CHEM1,12:R3-1:R2|PEPTIDE1,CHEM1,19:R3-1:R3$$$V2.0), the half-inhibitory concentration (IC50) at human plasma kallikrein [1] (setting [4]) came out at 200 nM; against human plasma kallikrein [1] (setting [5]), 259 nM. In addition, at human plasma kallikrein [1], the “inhibition of human plasma kallikrein, fold weaker than parental inhibitor PK15” value is reported as “about 70 fold”. The “amount of exopeptidase at which exocyclic amino acids (Ala-Leu-Gln-Ala) were degraded” value in data set [3] (bicyclic peptide, 30 min at RT) was at least 70 ng. Besides, in data set [3] (tricyclic peptide, compared with bicyclic), the “exopeptidase needed to degrade the Gln-Ala dipeptide” value is “higher exopeptidease concentrations were required”.
Consider `CC(C)C[C@@H]1NC(=O)[C@H](CCC(=O)O)NC(=O)[C@@H](NC(=O)[C@@H](N)CO)CSCc2cc3cc(c2)CSC[C@H](NC(=O)[C@H](CCCCN)NC(=O)[C@@H]2CCCN2C(=O)[C@H](CC(N)=O)NC(=O)[C@H](Cc2c[nH]c4ccccc24)NC1=O)C(=O)N[C@@H](CCCNC(=N)N)C(=O)N[C@@H](CC(C)C)C(=O)N[C@@H](CO)C(=O)N1CCC[C@H]1C(=O)N[C@@H](Cc1ccccc1)C(=O)N[C@@H](CCC(=O)O)C(=O)N[C@H](C(=O)N[C@@H](CCCCN)C(=O)NCC(=O)O)CSC3` [PEP10] (HELM PEPTIDE1{S.C.E.L.W.N.P.K.C.R.L.S.P.F.E.C.K.G}|CHEM1{[c1c(C[*:1])cc(C[*:3])cc1C[*:2]]}$PEPTIDE1,CHEM1,2:R3-1:R1|PEPTIDE1,CHEM1,9:R3-1:R2|PEPTIDE1,CHEM1,16:R3-1:R3$$$V2.0; bridges inferred), for which, at MDM2 (res 2-125), the “affinity of synthetic peptide for MDM2” value is “micromolar or better”.
